{
  "source": "paper PMC9500072",
  "about": "“Topical application of an irreversible small molecule inhibitor of lysyl oxidases ameliorates skin scarring and fibrosis” (Nature Communications, 2022)",
  "key": {"Bovine (aorta) LOX": {"target": "T1, Bovine (aorta) LOX (Bos taurus, UniProt P33072)", "T1 construct": "Bovine (aorta) LOX used for analog screening due to ready availability; from tissue; host or cells: bovine aorta", "T1 sequence (P33072 170-418)": "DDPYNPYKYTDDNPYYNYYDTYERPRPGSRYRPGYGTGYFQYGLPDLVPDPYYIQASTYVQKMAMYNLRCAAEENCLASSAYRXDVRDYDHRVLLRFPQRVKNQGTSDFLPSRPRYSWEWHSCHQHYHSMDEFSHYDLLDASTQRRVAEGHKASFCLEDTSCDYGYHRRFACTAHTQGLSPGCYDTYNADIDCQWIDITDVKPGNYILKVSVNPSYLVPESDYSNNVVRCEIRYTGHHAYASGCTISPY", "test": "Amplex Red oxidation assay, LOX inhibition", "assay_type": "biochemical", "protocol": "The measurement of the enzymatic activity of all lysyl oxidase family members was based on the detection of hydrogen peroxide with an Amplex-Red oxidation assay, as previously described; miniaturized in 384 well formats, with the appropriate combination of substrate and assay buffer for each individual enzyme. After a 30 min pre-incubation of the enzyme at 37 °C with the test compound (or with different incubation times for the time-dependency assay), one volume of reaction mixture containing 120 μM Amplex Red (AR) (Life Technologies), 1.5 U/mL horseradish peroxidase (HRP) (Sigma-Aldrich) and the specific substrate was added to each sample. The relative fluorescence units (RFU) were then measured every 2.5 min for 30 min at 37 °C, excitation 565 nm and emission 590, on a BMG Clariostar Microplate Reader. All the substrates were used at concentrations corresponding to their Km towards the corresponding enzyme, or with a range of different concentrations for the substrate competition experiments.\nLysyl oxidases assay buffer contained 1.2 M urea, 50 mM sodium borate buffer, pH 8.2 and 100 µM β-aminoproprionitrile (BAPN, Sigma-Aldrich) was used for low control."}, "primary scar fibroblasts": {"tested_on": "primary scar fibroblasts", "test": "Scar-in-a-jar collagen I immunofluorescence (deposition, coherency)", "assay_type": "cell-based, human", "protocol": "Fibrillar collagen I deposition was measured using confocal image analysis (Fig. 4f–k). […] Furthermore, coherency analysis[18] was used to determine collagen alignment. This analysis specifically analyses the alignment of collagen fibers, with more alignment increasing the score and more random distribution provided a lower score. In scar tissue scores are higher as fibers are densely parallel aligned in contrast to normal skin[18].\nAn experimental ‘Scar-in-a-jar’ protocol developed by Chen and Raghunath[36] was followed for quantitation of collagen per cell and to measure the orientation of collagen under fibrotic conditions in vitro. […] The images then further analyzed for collagen coherency measurements using ‘Fiji is just image j’s’ (FIJI) orientation J application as previously reported[18],[37]. For quantitation of collagen per cell, an image of whole chamber slide was captured using fluorescence microscope (Nikon inverted microscope). The 488 nm green and Hoechst stained blue images were collected, and analyzed using NIS-Elements software (Nikon, Japan). The six ROIs were selected from each image and the binary thresholds were recorded for each corresponding image. […]"}, "Adenosine A1": {"target": "Adenosine A1 (Homo sapiens, UniProt P30542)", "sequence (P30542 whole entry)": "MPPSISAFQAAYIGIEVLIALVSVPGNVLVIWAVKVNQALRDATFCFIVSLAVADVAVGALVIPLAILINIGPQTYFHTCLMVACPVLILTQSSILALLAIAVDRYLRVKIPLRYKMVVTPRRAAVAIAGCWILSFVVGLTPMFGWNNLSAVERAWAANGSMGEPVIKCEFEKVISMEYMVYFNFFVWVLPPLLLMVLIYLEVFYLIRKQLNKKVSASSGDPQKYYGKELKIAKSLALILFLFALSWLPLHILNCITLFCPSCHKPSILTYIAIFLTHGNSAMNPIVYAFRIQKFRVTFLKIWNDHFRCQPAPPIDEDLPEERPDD", "test": "Eurofins panel 200510", "assay_type": "binding"}, "Histamine H3": {"target": "Histamine H3 (Homo sapiens, UniProt Q9Y5N1)", "sequence (Q9Y5N1 whole entry)": "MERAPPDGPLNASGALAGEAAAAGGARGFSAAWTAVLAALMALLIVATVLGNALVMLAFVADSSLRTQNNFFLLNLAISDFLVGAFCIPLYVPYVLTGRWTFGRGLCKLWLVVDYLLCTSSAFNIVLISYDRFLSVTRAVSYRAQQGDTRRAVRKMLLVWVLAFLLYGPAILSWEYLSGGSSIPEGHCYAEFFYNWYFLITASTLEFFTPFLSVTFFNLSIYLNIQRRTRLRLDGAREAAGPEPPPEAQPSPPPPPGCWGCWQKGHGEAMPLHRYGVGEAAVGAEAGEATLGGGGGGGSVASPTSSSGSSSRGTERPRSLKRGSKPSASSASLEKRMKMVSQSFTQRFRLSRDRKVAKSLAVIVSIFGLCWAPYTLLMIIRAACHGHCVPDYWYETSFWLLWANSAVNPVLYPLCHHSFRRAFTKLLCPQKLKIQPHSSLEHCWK", "test": "Eurofins panel 239820", "assay_type": "binding"}, "[1]": {"target": "Platelet Activating Factor (PAF) (Homo sapiens, UniProt P25105)", "sequence (P25105 whole entry)": "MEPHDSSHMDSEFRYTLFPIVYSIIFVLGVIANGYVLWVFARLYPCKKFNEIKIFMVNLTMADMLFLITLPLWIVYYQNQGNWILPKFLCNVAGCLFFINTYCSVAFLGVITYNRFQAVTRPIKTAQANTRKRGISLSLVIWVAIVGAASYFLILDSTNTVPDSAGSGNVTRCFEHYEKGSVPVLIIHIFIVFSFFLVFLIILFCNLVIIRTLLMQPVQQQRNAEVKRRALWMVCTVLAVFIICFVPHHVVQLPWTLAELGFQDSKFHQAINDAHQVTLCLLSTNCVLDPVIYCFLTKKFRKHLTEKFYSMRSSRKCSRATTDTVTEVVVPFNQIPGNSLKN", "test": "Eurofins panel 265010", "assay_type": "binding"}, "Purinergic P2Y": {"tested_on": "Purinergic P2Y", "test": "Eurofins panel 268810", "assay_type": "binding, rat", "conditions": "10 µM"}, "Tachykinin NK1": {"target": "Tachykinin NK1 (Homo sapiens, UniProt P25103)", "sequence (P25103 whole entry)": "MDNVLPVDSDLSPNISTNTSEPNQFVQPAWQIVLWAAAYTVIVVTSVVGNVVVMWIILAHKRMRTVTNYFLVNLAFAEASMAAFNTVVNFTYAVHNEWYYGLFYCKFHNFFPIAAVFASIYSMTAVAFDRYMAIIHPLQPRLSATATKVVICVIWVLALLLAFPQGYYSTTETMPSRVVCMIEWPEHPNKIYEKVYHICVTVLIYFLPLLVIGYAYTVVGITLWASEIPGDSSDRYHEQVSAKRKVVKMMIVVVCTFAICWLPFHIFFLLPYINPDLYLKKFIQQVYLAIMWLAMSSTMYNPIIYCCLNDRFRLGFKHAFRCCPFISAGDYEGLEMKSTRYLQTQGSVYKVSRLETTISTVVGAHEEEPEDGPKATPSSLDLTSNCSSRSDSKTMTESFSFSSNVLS", "test": "Eurofins panel 255520", "assay_type": "binding"}, "PAMPA permeability": {"test": "PAMPA permeability", "assay_type": "in vitro ADME"}, "[2]": {"tested_on": "MDCKII cells transfected with P-glycoprotein (Pgp)", "test": "MDCKII-Pgp permeability", "assay_type": "in vitro ADME", "conditions": "unaffected by the presence of the Pgp-inhibitor", "protocol": "The penetration of PXS-6302 across a monolayer of cells was tested using Caco-2 or MDCKII cells transfected with P-glycoprotein (Pgp)."}, "[3]": {"target": "Cholinesterase, Acetyl, ACES (Homo sapiens, UniProt P22303)", "sequence (P22303 32-614)": "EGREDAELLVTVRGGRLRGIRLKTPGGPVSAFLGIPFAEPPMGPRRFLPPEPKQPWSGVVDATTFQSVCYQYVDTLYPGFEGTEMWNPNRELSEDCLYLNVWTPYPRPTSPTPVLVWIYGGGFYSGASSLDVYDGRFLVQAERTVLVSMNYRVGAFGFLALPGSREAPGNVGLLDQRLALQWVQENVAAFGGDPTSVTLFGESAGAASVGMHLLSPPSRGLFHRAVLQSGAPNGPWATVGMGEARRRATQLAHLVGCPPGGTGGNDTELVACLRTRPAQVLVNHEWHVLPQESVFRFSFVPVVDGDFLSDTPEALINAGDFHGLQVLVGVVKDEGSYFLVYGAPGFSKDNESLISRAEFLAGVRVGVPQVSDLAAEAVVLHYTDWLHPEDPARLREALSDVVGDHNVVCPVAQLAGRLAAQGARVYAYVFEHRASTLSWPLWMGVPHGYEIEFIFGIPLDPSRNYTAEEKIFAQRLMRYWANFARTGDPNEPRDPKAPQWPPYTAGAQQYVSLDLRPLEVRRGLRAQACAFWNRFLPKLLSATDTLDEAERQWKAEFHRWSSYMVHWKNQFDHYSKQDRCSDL", "test": "Eurofins panel 104010", "assay_type": "biochemical"}, "Phosphodiesterase PDE3A": {"target": "Phosphodiesterase PDE3A (Homo sapiens, UniProt Q14432)", "sequence (Q14432 whole entry)": "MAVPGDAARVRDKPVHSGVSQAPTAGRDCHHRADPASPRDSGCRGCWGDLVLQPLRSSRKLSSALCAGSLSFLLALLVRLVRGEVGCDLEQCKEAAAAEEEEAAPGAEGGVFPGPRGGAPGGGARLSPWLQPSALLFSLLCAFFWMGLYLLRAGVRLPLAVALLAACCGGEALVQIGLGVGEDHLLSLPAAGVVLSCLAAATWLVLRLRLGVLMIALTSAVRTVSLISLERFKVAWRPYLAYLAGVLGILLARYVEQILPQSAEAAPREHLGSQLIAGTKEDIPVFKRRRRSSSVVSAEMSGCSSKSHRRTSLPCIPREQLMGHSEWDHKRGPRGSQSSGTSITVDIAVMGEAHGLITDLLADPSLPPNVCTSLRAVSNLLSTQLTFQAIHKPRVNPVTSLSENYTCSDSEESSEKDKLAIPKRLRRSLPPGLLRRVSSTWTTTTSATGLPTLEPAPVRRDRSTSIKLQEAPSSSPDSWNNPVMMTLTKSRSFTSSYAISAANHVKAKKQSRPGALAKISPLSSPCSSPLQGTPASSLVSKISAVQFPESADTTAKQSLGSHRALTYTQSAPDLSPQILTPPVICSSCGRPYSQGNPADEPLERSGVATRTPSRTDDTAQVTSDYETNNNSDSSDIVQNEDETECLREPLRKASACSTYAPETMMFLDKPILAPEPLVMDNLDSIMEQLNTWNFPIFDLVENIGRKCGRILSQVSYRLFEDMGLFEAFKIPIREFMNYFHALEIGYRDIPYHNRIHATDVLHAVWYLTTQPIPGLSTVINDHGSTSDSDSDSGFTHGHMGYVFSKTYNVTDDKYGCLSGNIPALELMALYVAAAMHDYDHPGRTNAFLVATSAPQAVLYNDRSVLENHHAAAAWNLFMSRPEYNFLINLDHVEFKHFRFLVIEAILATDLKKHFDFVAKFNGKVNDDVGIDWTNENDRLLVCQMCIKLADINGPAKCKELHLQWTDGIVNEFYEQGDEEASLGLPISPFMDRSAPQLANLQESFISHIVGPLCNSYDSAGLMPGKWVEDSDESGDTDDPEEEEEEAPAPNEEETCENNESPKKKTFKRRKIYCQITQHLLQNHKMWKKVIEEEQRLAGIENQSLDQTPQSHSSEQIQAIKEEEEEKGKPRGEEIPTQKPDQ", "test": "Eurofins panel 152300", "assay_type": "biochemical"}},
  "data": [
    {"compound": "NC/C=C(\\F)CS(=O)(=O)c1ccccc1", "note": "[PXS-4787]", "values": [
      {"measurement": "IC50", "setting": "Bovine (aorta) LOX; 30 min pre-incubation", "value": 2, "unit": "µM"},
      {"measurement": "inhibition at 30 µM", "setting": "Bovine (aorta) LOX; log conc -4.5229, read-out: Fig 2A inhibition (mean)", "value": 99.2, "unit": "%"},
      {"measurement": "inhibition at 10 µM", "setting": "Bovine (aorta) LOX; log conc -5, read-out: Fig 2A inhibition (mean)", "value": 92.3, "unit": "%"},
      {"measurement": "inhibition at 3.333 µM", "setting": "Bovine (aorta) LOX; log conc -5.4771, read-out: Fig 2A inhibition (mean)", "value": 65.8, "unit": "%"},
      {"measurement": "inhibition at 1.111 µM", "setting": "Bovine (aorta) LOX; log conc -5.9542, read-out: Fig 2A inhibition (mean)", "value": 35, "unit": "%"},
      {"measurement": "inhibition at 0.3704 µM", "setting": "Bovine (aorta) LOX; log conc -6.4313, read-out: Fig 2A inhibition (mean)", "value": 14.2, "unit": "%"},
      {"measurement": "inhibition at 0.1235 µM", "setting": "Bovine (aorta) LOX; log conc -6.9083, read-out: Fig 2A inhibition (mean)", "value": 4.31, "unit": "%"},
      {"measurement": "inhibition at 0.0412 µM", "setting": "Bovine (aorta) LOX; log conc -7.3851, read-out: Fig 2A inhibition (mean)", "value": 1.21, "unit": "%"},
      {"measurement": "inhibition at 0.0137 µM", "setting": "Bovine (aorta) LOX; log conc -7.8633, read-out: Fig 2A inhibition (mean)", "value": -0.629, "unit": "%"},
      {"measurement": "inhibition at 0.0046 µM", "setting": "Bovine (aorta) LOX; log conc -8.3372, read-out: Fig 2A inhibition (mean)", "value": -1.3, "unit": "%"},
      {"measurement": "inhibition at […]", "setting": "Bovine (aorta) LOX; log conc -8.8239, read-out: Fig 2A inhibition (mean)", "value": -1.09, "unit": "%"},
      {"measurement": "inhibition at 0.0005 µM", "setting": "Bovine (aorta) LOX; log conc -9.301, read-out: Fig 2A inhibition (mean)", "value": -1.47, "unit": "%"},
      {"measurement": "deposited fibrillar collagen I", "setting": "primary scar fibroblasts; 10 µM vs control and 1 µM", "value": "significantly reduced"},
      {"measurement": "collagen I coherency", "setting": "primary scar fibroblasts; 1 and 10 µM vs control", "value": "significantly reduced coherency"},
      {"measurement": "inhibition at 10 µM", "setting": "Adenosine A1", "value": 1, "unit": "%"},
      {"measurement": "inhibition at 10 µM", "setting": "Histamine H3", "value": -5, "unit": "%"},
      {"measurement": "inhibition at 10 µM", "setting": "[1]", "value": -11, "unit": "%"},
      {"measurement": "% Inh.", "setting": "Purinergic P2Y", "value": 2, "unit": "%"},
      {"measurement": "inhibition at 10 µM", "setting": "Tachykinin NK1", "value": 10, "unit": "%"}
    ]},
    {"compound": "NC/C=C(\\F)C(F)(F)S(=O)(=O)c1ccccc1", "note": "[PXS-6302]", "values": [
      {"measurement": "PAMPA permeability (class in words)", "setting": "PAMPA permeability", "value": "High and high permeability"},
      {"measurement": "Papp", "setting": "PAMPA permeability; GIT PAMPA at pH 7.4, read-out: PAMPA permeability, Average of P", "value": 1680, "unit": "nm/s"},
      {"measurement": "MDCKII-Pgp permeability (class in words)", "setting": "[2]", "value": "high permeability"},
      {"measurement": "inhibition at 30 µM", "setting": "[3]", "value": 2, "unit": "%"},
      {"measurement": "inhibition at 30 µM", "setting": "Phosphodiesterase PDE3A", "value": -4, "unit": "%"}
    ]}
  ]
}
